Here are results for 14 substances from publication PMC10893103, “Cyclodextrin-Enabled Enantioselective Complexation Study of Cathinone Analogs” (Molecules, 2024).

This data set can be described thus: Affinity capillary electrophoresis (ACE), pH 7.4. The conditions noted are these: 30 mM phosphate buffer pH 7.4, 25 °C, 15 kV. The text has this:
To assess the CD complex formation capability of the five cathinone derivatives, we devised a screening ACE method tailored to closely mimic physiological conditions. In a preliminary study, the ACE conditions were optimized regarding the type, pH, and concentration of the background electrolyte, the applied voltage, and the injection parameters. […] In order to avoid high Joule heat generation, sufficiently low voltage should be used; thus, after registering the Ohm plot (I-U plot), it was set to 15 kV. Throughout our ACE measurements, corrections for viscosity and ionic strength were systematically implemented to ensure precise determination of complex stability constants.
The CE experiments were performed on a HP ^3DCE and on an Agilent 7100 instrument (Agilent Technologies, Waldbronn, Germany) equipped with a photodiode array detector and the Chemstation software for data handling. Untreated fused silica capillaries (50 µm id, 48.5 cm total, 40 cm effective length) were purchased from Agilent. Conditioning of new capillary was conducted by flushing with 1 M NaOH followed by 0.1 M NaOH and water for 30 min each. Prior to all runs, the capillary was preconditioned by rinsing with BGE (2 min). The temperature of the capillary was set to 25 °C. UV detection was performed at 215 nm, and 15–25 kV voltage was applied. Samples were injected hydrodynamically (150 mbar·sec, optimized in the 50–500 mbar·sec range). The CE-pH measurements were carried out applying 25 kV voltage and 200 mbar·sec injection.
The background electrolyte of the CE-pH measurements contained 25 mM Na2HPO4 and 25 mM Na2B4O7, and the appropriate pH was adjusted with hydrochloric acid. During the ACE measurements, 30 mM phosphate buffer pH 7.4 (30 mM Na2HPO4—NaOH) was used. The running buffer was 20 mM acetic acid adjusting with 1 M Tris the pH to 4.5 during the chiral screening experiments. The BGEs contained CDs at various concentrations (0.25–20 mM) in the ACE experiments and 1-5-10 mM in the chiral method optimization experiments.
Stock solutions of each cathinone analog (mephedrone, flephedrone, 4-MEC, butylone, and MDPV) were prepared separately in methanol (1 mg/ml), and appropriate dilutions with water were used to prepare sample solutions for the CE-pH titration and for the ACE studies applying DMSO as EOF marker, while their mixture was used during the chiral separation studies.
The simplest way to determine the mobility is from the migration times (tmax) read from the electropherograms from which the apparent mobility could be calculated, but more accurate mobility values could be obtained by the determination with the Haarhoff–van der Linde (HVL) function based on Equation (2). (2) HVLδ(t;a0,a1,a2,a3δ)=a0/a2a3δ2πexp[−1/2(t−a1/a2)^2]/1/exp(a3δ)−1+1/2[1+erf(t−a1/2a2)] where a0 is the area of the HVL function, a1 is the position of the Gaussian component, a2 is the standard deviation of the Gaussian component, and a3δ is the peak shape distortion. The application of the HVL function is necessary in the case of accurate ACE measurements because, in several cases, the peaks are distorted due to the complex formation, which makes reading the migration times and calculating the mobility more difficult and imprecise.
The most popular technique for quantifying the analyte–ligand interaction with CE is mobility shift ACE.
carboxymethylated-α-CD [CM-α-CD]: the “4-MEC–CD complex stability constant, Kstab2 (second migrating enantiomer)” value stood at 150 ± 15 M⁻¹; the “4-MEC–CD complex stability constant, Kstab/Kstab1 (unresolved or first migrating enantiomer)” value amounted to 150 ± 15 M⁻¹; the “Butylone–CD complex stability constant, Kstab2 (second migrating enantiomer)” value is 90 ± 12 M⁻¹; the “Butylone–CD complex stability constant, Kstab/Kstab1 (unresolved or first migrating enantiomer)” value was determined as 110 ± 12 M⁻¹. The “Flephedrone–CD complex stability constant, Kstab2 (second migrating enantiomer)” value came to 90 ± 15 M⁻¹; the “Flephedrone–CD complex stability constant, Kstab/Kstab1 (unresolved or first migrating enantiomer)” value amounted to 75 ± 9 M⁻¹; the “MDPV–CD complex stability constant, Kstab2 (second migrating enantiomer)” value stood at 340 ± 20 M⁻¹; the “MDPV–CD complex stability constant, Kstab/Kstab1 (unresolved or first migrating enantiomer)” value turned out to be 240 ± 20 M⁻¹. Moreover, the “Mephedrone–CD complex stability constant, Kstab2 (second migrating enantiomer)” value was determined as 110 ± 20 M⁻¹ and the “Mephedrone–CD complex stability constant, Kstab/Kstab1 (unresolved or first migrating enantiomer)” value was determined as 90 ± 20 M⁻¹.

On to carboxymethylated-β-CD [CM-β-CD], for which the “4-MEC–CD complex stability constant, Kstab2 (second migrating enantiomer)” value worked out at 725 ± 45 M⁻¹; the “4-MEC–CD complex stability constant, Kstab/Kstab1 (unresolved or first migrating enantiomer)” value is 620 ± 40 M⁻¹; the “Flephedrone–CD complex stability constant, Kstab2 (second migrating enantiomer)” value was 225 ± 10 M⁻¹; the “Flephedrone–CD complex stability constant, Kstab/Kstab1 (unresolved or first migrating enantiomer)” value stood at 190 ± 10 M⁻¹. The “Mephedrone–CD complex stability constant, Kstab2 (second migrating enantiomer)” value is 615 ± 25 M⁻¹ and the “Mephedrone–CD complex stability constant, Kstab/Kstab1 (unresolved or first migrating enantiomer)” value turned out to be 610 ± 30 M⁻¹.

In the case of carboxymethylated-γ-CD [CM-γ-CD], the “4-MEC–CD complex stability constant, Kstab2 (second migrating enantiomer)” value stood at 70 ± 10 M⁻¹; the “4-MEC–CD complex stability constant, Kstab/Kstab1 (unresolved or first migrating enantiomer)” value was determined as 65 ± 8 M⁻¹; the “Butylone–CD complex stability constant, Kstab2 (second migrating enantiomer)” value is 170 ± 10 M⁻¹; the “Butylone–CD complex stability constant, Kstab/Kstab1 (unresolved or first migrating enantiomer)” value is 140 ± 10 M⁻¹. For the same substance, the “Flephedrone–CD complex stability constant, Kstab2 (second migrating enantiomer)” value was determined as 30 ± 5 M⁻¹; the “Flephedrone–CD complex stability constant, Kstab/Kstab1 (unresolved or first migrating enantiomer)” value stood at 50 ± 9 M⁻¹; the “MDPV–CD complex stability constant, Kstab2 (second migrating enantiomer)” value came out at 170 ± 17 M⁻¹; the “MDPV–CD complex stability constant, Kstab/Kstab1 (unresolved or first migrating enantiomer)” value was 160 ± 15 M⁻¹. Besides, the “Mephedrone–CD complex stability constant, Kstab2 (second migrating enantiomer)” value turned out to be 60 ± 10 M⁻¹ and the “Mephedrone–CD complex stability constant, Kstab/Kstab1 (unresolved or first migrating enantiomer)” value was found to be 50 ± 8 M⁻¹.

dimethylated-β-CD [DIME-β-CD]: the “4-MEC–CD complex stability constant, Kstab2 (second migrating enantiomer)” value turned out to be 270 ± 25 M⁻¹; the “4-MEC–CD complex stability constant, Kstab/Kstab1 (unresolved or first migrating enantiomer)” value was 210 ± 20 M⁻¹; the “Flephedrone–CD complex stability constant, Kstab/Kstab1 (unresolved or first migrating enantiomer)” value was determined as 60 ± 6 M⁻¹; the “Mephedrone–CD complex stability constant, Kstab/Kstab1 (unresolved or first migrating enantiomer)” value was 150 ± 15 M⁻¹.

Regarding hydroxypropylated-β-CD [HP-β-CD], the “4-MEC–CD complex stability constant, Kstab/Kstab1 (unresolved or first migrating enantiomer)” value is 80 ± 5 M⁻¹; the “Butylone–CD complex stability constant, Kstab/Kstab1 (unresolved or first migrating enantiomer)” value is 170 ± 10 M⁻¹; the “Flephedrone–CD complex stability constant, Kstab/Kstab1 (unresolved or first migrating enantiomer)” value came out at 15 ± 3 M⁻¹; the “MDPV–CD complex stability constant, Kstab/Kstab1 (unresolved or first migrating enantiomer)” value was 255 ± 10 M⁻¹. Also, the “Mephedrone–CD complex stability constant, Kstab/Kstab1 (unresolved or first migrating enantiomer)” value came to 60 ± 4 M⁻¹.

On to hydroxypropylated-γ-CD [HP-γ-CD], for which the “4-MEC–CD complex stability constant, Kstab/Kstab1 (unresolved or first migrating enantiomer)” value was found to be 40 ± 4 M⁻¹; the “Butylone–CD complex stability constant, Kstab/Kstab1 (unresolved or first migrating enantiomer)” value came out at 40 ± 5 M⁻¹; the “Flephedrone–CD complex stability constant, Kstab/Kstab1 (unresolved or first migrating enantiomer)” value came to 220 ± 35 M⁻¹; the “MDPV–CD complex stability constant, Kstab/Kstab1 (unresolved or first migrating enantiomer)” value worked out at 50 ± 10 M⁻¹. Also, the “Mephedrone–CD complex stability constant, Kstab/Kstab1 (unresolved or first migrating enantiomer)” value is 25 ± 3 M⁻¹.

As for phosphated-β-CD [Phos-β-CD], the “Flephedrone–CD complex stability constant, Kstab2 (second migrating enantiomer)” value worked out at 440 ± 35 M⁻¹; the “Flephedrone–CD complex stability constant, Kstab/Kstab1 (unresolved or first migrating enantiomer)” value is 330 ± 20 M⁻¹; the “MDPV–CD complex stability constant, Kstab/Kstab1 (unresolved or first migrating enantiomer)” value is 870 ± 60 M⁻¹.

In the case of randomly methylated-β-CD [RAME-β-CD], the “4-MEC–CD complex stability constant, Kstab/Kstab1 (unresolved or first migrating enantiomer)” value is 140 ± 7 M⁻¹; the “Butylone–CD complex stability constant, Kstab2 (second migrating enantiomer)” value was determined as 350 ± 15 M⁻¹; the “Butylone–CD complex stability constant, Kstab/Kstab1 (unresolved or first migrating enantiomer)” value is 325 ± 15 M⁻¹; the “Flephedrone–CD complex stability constant, Kstab/Kstab1 (unresolved or first migrating enantiomer)” value worked out at 40 ± 5 M⁻¹. For the same substance, the “MDPV–CD complex stability constant, Kstab/Kstab1 (unresolved or first migrating enantiomer)” value was determined as 585 ± 35 M⁻¹ and the “Mephedrone–CD complex stability constant, Kstab/Kstab1 (unresolved or first migrating enantiomer)” value turned out to be 100 ± 5 M⁻¹.

For the substance succinyl-β-CD [Succ-β-CD (DS~4)], the “Butylone–CD complex stability constant, Kstab2 (second migrating enantiomer)” value is 30,500 ± 5300 M^−1; the “Butylone–CD complex stability constant, Kstab/Kstab1 (unresolved or first migrating enantiomer)” value is 13,500 ± 1350 M^−1; the “MDPV–CD complex stability constant, Kstab2 (second migrating enantiomer)” value is 10,600 ± 35 M^−1; the “MDPV–CD complex stability constant, Kstab/Kstab1 (unresolved or first migrating enantiomer)” value was 12,100 ± 2150 M^−1.

In the case of sulfated-β-CD [S-β-CD], the “Flephedrone–CD complex stability constant, Kstab/Kstab1 (unresolved or first migrating enantiomer)” value was found to be 860 ± 100 M⁻¹.

Regarding sulfated-γ-CD [S-γ-CD], the “4-MEC–CD complex stability constant, Kstab/Kstab1 (unresolved or first migrating enantiomer)” value came out at 290 ± 30 M⁻¹; the “Butylone–CD complex stability constant, Kstab/Kstab1 (unresolved or first migrating enantiomer)” value is 960 ± 95 M⁻¹; the “MDPV–CD complex stability constant, Kstab/Kstab1 (unresolved or first migrating enantiomer)” value amounted to 250 ± 55 M⁻¹; the “Mephedrone–CD complex stability constant, Kstab/Kstab1 (unresolved or first migrating enantiomer)” value turned out to be 160 ± 15 M⁻¹.

As to “sulfo(2-hydroxy)propylated-β-CD [SHP-β-CD]”, the “4-MEC–CD complex stability constant, Kstab2 (second migrating enantiomer)” value is 300 ± 25 M⁻¹; the “4-MEC–CD complex stability constant, Kstab/Kstab1 (unresolved or first migrating enantiomer)” value was determined as 250 ± 20 M⁻¹; the “Butylone–CD complex stability constant, Kstab/Kstab1 (unresolved or first migrating enantiomer)” value worked out at 620 ± 35 M⁻¹; the “Flephedrone–CD complex stability constant, Kstab/Kstab1 (unresolved or first migrating enantiomer)” value was 60 ± 10 M⁻¹. The “MDPV–CD complex stability constant, Kstab2 (second migrating enantiomer)” value came to 910 ± 55 M⁻¹; the “MDPV–CD complex stability constant, Kstab/Kstab1 (unresolved or first migrating enantiomer)” value was determined as 800 ± 65 M⁻¹; the “Mephedrone–CD complex stability constant, Kstab2 (second migrating enantiomer)” value is 300 ± 20 M⁻¹; the “Mephedrone–CD complex stability constant, Kstab/Kstab1 (unresolved or first migrating enantiomer)” value was determined as 230 ± 20 M⁻¹.

On to “sulfo(2-hydroxy)propylated-γ-CD [SHP-γ-CD]”, for which the “4-MEC–CD complex stability constant, Kstab2 (second migrating enantiomer)” value was 25 ± 5 M⁻¹; the “4-MEC–CD complex stability constant, Kstab/Kstab1 (unresolved or first migrating enantiomer)” value was 30 ± 7 M⁻¹; the “Butylone–CD complex stability constant, Kstab2 (second migrating enantiomer)” value is 70 ± 7 M⁻¹; the “Butylone–CD complex stability constant, Kstab/Kstab1 (unresolved or first migrating enantiomer)” value worked out at 30 ± 5 M⁻¹. The “Flephedrone–CD complex stability constant, Kstab/Kstab1 (unresolved or first migrating enantiomer)” value stood at 45 ± 80 M⁻¹; the “Mephedrone–CD complex stability constant, Kstab2 (second migrating enantiomer)” value is < 10 M⁻¹; the “Mephedrone–CD complex stability constant, Kstab/Kstab1 (unresolved or first migrating enantiomer)” value is 15 ± 5 M⁻¹.

With sulfobutyl-ether-α-CD [SBE-α-CD], the “4-MEC–CD complex stability constant, Kstab2 (second migrating enantiomer)” value is 610 ± 55 M⁻¹; the “4-MEC–CD complex stability constant, Kstab/Kstab1 (unresolved or first migrating enantiomer)” value was 450 ± 45 M⁻¹; the “Butylone–CD complex stability constant, Kstab2 (second migrating enantiomer)” value was 530 ± 100 M⁻¹; the “Butylone–CD complex stability constant, Kstab/Kstab1 (unresolved or first migrating enantiomer)” value is 220 ± 20 M⁻¹. Further, the “MDPV–CD complex stability constant, Kstab2 (second migrating enantiomer)” value was found to be 550 ± 90 M⁻¹; the “MDPV–CD complex stability constant, Kstab/Kstab1 (unresolved or first migrating enantiomer)” value came out at 580 ± 80 M⁻¹; the “Mephedrone–CD complex stability constant, Kstab2 (second migrating enantiomer)” value was 565 ± 80 M⁻¹; the “Mephedrone–CD complex stability constant, Kstab/Kstab1 (unresolved or first migrating enantiomer)” value stood at 430 ± 70 M⁻¹.
